Source: the NIST ThermoML archive (doi:10.1007/s10765-013-1527-7)
Numbers after ± are expanded uncertainties.

Experiment: xn = mol fraction of the nth substance listed
Settings: 303 K, 101 kPa, Liquid; for speed of sound: Linear variable-path acoustic interferometer; for mass density: Pycnometric method

With `CC(C)=O` [acetone] + Cc1ccccc1 the speed of sound (Frequency=1 MHz, x1 = 0.135) was 946 ± 2 m/s, the speed of sound (Frequency=3 MHz, x1 = 0.135) was 1040 ± 2 m/s and the speed of sound (Frequency=3 MHz, x1 = 0.27) was 1032 ± 2 m/s. The speed of sound (Frequency=3 MHz, x1 = 0.331) was 1020 ± 2 m/s, the speed of sound (Frequency=3 MHz, x1 = 0.456) was 1000 ± 2 m/s and the speed of sound (Frequency=3 MHz, x1 = 0.51) was 981 ± 2 m/s. It also gave a speed of sound (Frequency=3 MHz, x1 = 0.605) of 965 ± 2 m/s, a speed of sound (Frequency=3 MHz, x1 = 0.745) of 943 ± 2 m/s and a speed of sound (Frequency=3 MHz, x1 = 0.937) of 1028 ± 2 m/s. For the same compound, the speed of sound (Frequency=5 MHz, x1 = 0.135) was 1150 ± 2 m/s, the speed of sound (Frequency=5 MHz, x1 = 0.27) was 1130 ± 2 m/s and the speed of sound (Frequency=5 MHz, x1 = 0.331) was 1102 ± 2 m/s. For the same compound, the speed of sound (Frequency=5 MHz, x1 = 0.456) was 1080 ± 2 m/s, the speed of sound (Frequency=5 MHz, x1 = 0.51) was 1040 ± 2 m/s and the speed of sound (Frequency=5 MHz, x1 = 0.605) was 1010 ± 2 m/s. The speed of sound (Frequency=5 MHz, x1 = 0.745) was 1000 ± 2 m/s, the speed of sound (Frequency=5 MHz, x1 = 0.831) was 1150 ± 2 m/s and the speed of sound (Frequency=5 MHz, x1 = 0.937) was 1230 ± 2 m/s. It also gave a mass density (x1 = 0.135) of 850 ± 1 kg/m3, a mass density (x1 = 0.27) of 840 ± 1 kg/m3 and a mass density (x1 = 0.331) of 836 ± 1 kg/m3. The mass density (x1 = 0.456) was 827 ± 1 kg/m3, the mass density (x1 = 0.51) was 823 ± 1 kg/m3 and the mass density (x1 = 0.605) was 817 ± 1 kg/m3. It also gave a mass density (x1 = 0.745) of 807 ± 1 kg/m3, a mass density (x1 = 0.831) of 800 ± 1 kg/m3 and a mass density (x1 = 0.937) of 793 ± 1 kg/m3. It also gave a mass density (x1 = 1) of 789 ± 1 kg/m3.

`Cc1ccccc1` [toluene] + CC(C)=O gave a mass density (x2 = 0) of 860 ± 1 kg/m3.
